Source: PubChem BioAssay AID2060624 (Molecular Pharmacology Branch, DTP, NCI, 2025)

Test system: 217524-143-R1-J4-PDC spheroids with HUVEC/MSC, viability
Assay: Anticancer human tumor 217524-143-R1-J4-PDC patient-derived pancreatic carcinoma cell line growth inhibition [CLK]
Settings: for IC50: curve of first compound; for viability, T/C: stronger effect = lower value
Outline: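 Multi-cell-type spheroids combined patient-derived tumor cells with HUVEC endothelial cells and human mesenchymal stem cells. Paired agents were dosed in half-log steps down from about clinical Cmax, or from 10 microM where Cmax was unknown.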
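Also: spheroids exposed to agents for seven days before reading.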
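For viability, T/C in this document: 100% = DMSO vehicle control viability.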

COc1ccc([C@@H](O)c2cc(-c3ncnc4cc(N5CCOCC5)ccc34)c(F)cc2Cl)nn1 + CNC(=O)c1ccc(Nc2nc(OC3CCCC3)c3c(-c4ccc5nc(C)oc5c4)c[nH]c3n2)c(OC)c1 gave an IC50 (second compound 0.0316 µM) of 813 nM, an IC50 (second compound 0.1 µM) of less than 31.6 nM and an IC50 (second compound 0.316 µM) of less than 31.6 nM. For the same compound, the IC50 (second compound 1 µM) was less than 31.6 nM, the IC50 (second compound 3.16 µM) was less than 31.6 nM and the IC50 (second compound 10 µM) was less than 31.6 nM. The viability, T/C (second compound 0.0316 µM, first compound 0.0316 µM) was 95.4%, the viability, T/C (second compound 0.0316 µM, first compound 0.1 µM) was 72% and the viability, T/C (second compound 0.0316 µM, first compound 0.316 µM) was 66%. It also gave a viability, T/C (second compound 0.0316 µM, first compound 1 µM) of 50.4%, a viability, T/C (second compound 0.0316 µM, first compound 3.16 µM) of 27.6% and a viability, T/C (second compound 0.0316 µM, first compound 10 µM) of 10.6%. It also gave a viability, T/C (second compound 0.1 µM, first compound 0.0316 µM) of 43.1%, a viability, T/C (second compound 0.1 µM, first compound 0.1 µM) of 34.6% and a viability, T/C (second compound 0.1 µM, first compound 0.316 µM) of 32%. The viability, T/C (second compound 0.1 µM, first compound 1 µM) was 27.9%, the viability, T/C (second compound 0.1 µM, first compound 3.16 µM) was 19.3% and the viability, T/C (second compound 0.1 µM, first compound 10 µM) was 9.43%. It also gave a viability, T/C (second compound 0.316 µM, first compound 0.0316 µM) of 39.8%, a viability, T/C (second compound 0.316 µM, first compound 0.1 µM) of 28.4% and a viability, T/C (second compound 0.316 µM, first compound 0.316 µM) of 27.4%. The viability, T/C (second compound 0.316 µM, first compound 1 µM) was 20.8%, the viability, T/C (second compound 0.316 µM, first compound 3.16 µM) was 13.3% and the viability, T/C (second compound 0.316 µM, first compound 10 µM) was 7.35%. For the same compound, the viability, T/C (second compound 1 µM, first compound 0.0316 µM) was 32%, the viability, T/C (second compound 1 µM, first compound 0.1 µM) was 22.9% and the viability, T/C (second compound 1 µM, first compound 0.316 µM) was 23.3%. For the same compound, the viability, T/C (second compound 1 µM, first compound 1 µM) was 13.6%, the viability, T/C (second compound 1 µM, first compound 3.16 µM) was 11.8% and the viability, T/C (second compound 1 µM, first compound 10 µM) was 5.29%. It also gave a viability, T/C (second compound 3.16 µM, first compound 0.0316 µM) of 25.6%, a viability, T/C (second compound 3.16 µM, first compound 0.1 µM) of 27% and a viability, T/C (second compound 3.16 µM, first compound 0.316 µM) of 20.2%. For the same compound, the viability, T/C (second compound 3.16 µM, first compound 1 µM) was 16.9%, the viability, T/C (second compound 3.16 µM, first compound 3.16 µM) was 10.3% and the viability, T/C (second compound 3.16 µM, first compound 10 µM) was 4.64%. It also gave a viability, T/C (second compound 10 µM, first compound 0.0316 µM) of 24.8%, a viability, T/C (second compound 10 µM, first compound 0.1 µM) of 23.6% and a viability, T/C (second compound 10 µM, first compound 0.316 µM) of 20.7%. It also gave a viability, T/C (second compound 10 µM, first compound 1 µM) of 13.8%, a viability, T/C (second compound 10 µM, first compound 3.16 µM) of 9.68% and a viability, T/C (second compound 10 µM, first compound 10 µM) of 5.01%.
